In ChEMBL document CHEMBL6153138, “Discovery of Novel Aromatic Urea-Imidazole Salt Derivatives for Cancer Therapy via Targeting ERK1/2” (J Med Chem, 2025):
Calls of active or inactive are those of the source. No cut-off for these calls is given here.

Key:
MCF7 [1] = test: Upregulation of ERK1/2 phosphorylation expression in human MCF7 cells at 2 uM measured after 8 hrs by immunofluorescence analysis; assay type: functional, cell-based
Mitochondrial membrane [2] = test: Induction of mitochondrial membrane potential loss in human MCF7 cells assessed as increase in JC-1 monomers by measuring increase in green fluorescence at 2 uM by flow cytometry analysis (reference value: 38.0%); assay type: cell membranes
MCF7 [3] = test: Effect on MEK1/2 phosphorylation expression in human MCF7 cells at 0.5 to 2 uM measured after 30 mins to 4 hrs by Western blot analysis; assay type: functional, cell-based; details: dose 0.5-2 µM, time 30-240 min
MCF7 [4] = test: Upregulation of caspase3 protein expression in human MCF-7 cells at 1 uM incubated for 6 hrs in presence of 3-methyladenine by Western blot analysis; assay type: functional, cell-based
MCF7 [5] = test: Induction of autophagic flux in human MCF7 cells assessed as increase in LC3B-II expression at 1 uM incubated for 48 hrs in presence of chloroquine by Western blot analysis; assay type: functional, cell-based
[6] = Toxicity in female BALB/c mouse assessed as effect TG level in serum at 25 to 50 mg/kg, po qd measured after 18 days by biochemical analysis; assay type: organism-based; details: in vivo, 432 h, dose 25-50 mg/kg, time 18 day
4T1 [7] = test: Antitumor activity against mouse 4T1 cells implanted in female BALB/c mouse model assessed as tumor necrosis at 25 to 50 mg/kg, po qd measured for 18 days by H and E staining based analysis; assay type: functional, organism-based; details: dose 25-50 mg/kg, time 18.0 day
MCF7 [8] = test: Inhibition of colony formation in human MCF7 cells harbouring ERK1 knockout at 1 uM incubated for 48 hrs by crystal violet staining based microscopic analysis; assay type: functional, cell-based
Mitochondrial membrane [9] = test: Induction of mitochondrial membrane potential loss in human MCF7 cells assessed as increase in JC-1 monomers by measuring increase in green fluorescence at 0.5 uM by flow cytometry analysis (reference value: 38.0%); assay type: cell membranes
4T1 [10] = test: Antitumor activity against mouse 4T1 cells implanted in female BALB/c mouse model assessed as reduction in number of PCNA-positive proliferative cells at 25 to 50 mg/kg, po qd by immunohistochemical analysis; assay type: functional, organism-based; details: dose 25-50 mg/kg
4T1-Luc [11] = test: Anti-metastatic activity in mouse 4T1-Luc cells assessed as reduction in number of tumor metastatic nodules at 25 to 50 mg/kg, po measured after 20 days; assay type: functional, organism-based; details: dose 25-50 mg/kg, time 20.0 day
MCF7 [12] = test: Upregulation of ERK1/2 phosphorylation expression in human MCF7 cells at 2 uM measured after 8 hrs by Western blot analysis; assay type: functional, cell-based
4T1 [13] = test: Antitumor activity against mouse 4T1 cells implanted in female BALB/c mouse model assessed as reduction in PCNA expression at 50 mg/kg, po in presence of chloroquine by immunohistochemical analysis; assay type: functional, organism-based
MCF7 [14] = test: Induction of autophagy in human MCF7 cells assessed as increase in Beclin-1 level at 1 uM by Western blot analysis; assay type: functional, cell-based
[15] = AUC (0 to t) in Sprague-Dawley rat at 1 mg/kg, iv by LC-MS/MS analysis; assay type: ADME, organism-based; details: in vivo
[16] = target: T1, Mitogen-activated protein kinase 1 (Homo sapiens, UniProt P28482); test: Binding affinity to ERK2 (unknown origin) assessed as dissociation constant by MST analysis
4T1 [17] = test: Antitumor activity against mouse 4T1 cells implanted in female BALB/c mouse model assessed as tumor growth inhibition at 25 mg/kg, po qd measured for 18 days relative to control; assay type: functional; details: 4T1, 432 h, time 18 day, read-out: TGI
MCF7 [18] = test: Inhibition of cell invasion in human MCF7 cells at incubated for 48 hrs by crystal violet staining based assay; assay type: functional; details: dose 0.5-2 µM
MCF7 [19] = test: Induction of autophagy in human MCF7 cells harbouring ATG5 knockout assessed as increase in LC3B expression at 1 uM incubated for 48 hrs by Western blot analysis; assay type: functional, cell-based
Mitochondrial membrane [20] = test: Induction of mitochondrial membrane potential loss in human MCF7 cells assessed as reduction in JC-1 aggregates by measuring decrease in red fluorescence at 1 uM by flow cytometry analysis (reference value: 24.7%); assay type: cell membranes; parameters: scale not given: the % may be the effect or the level left
[21] = Toxicity in female BALB/c mouse assessed as effect on liver at 50 mg/kg, po qd measured after 18 days in presence of chloroquine by H and E staining based analysis; assay type: organism-based; details: in vivo, 432 h, time 18 day
[22] = Toxicity in female BALB/c mouse assessed as effect on spleen at 50 mg/kg, po qd measured after 18 days in presence of chloroquine by H and E staining based analysis; assay type: organism-based; details: in vivo, 432 h, time 18 day
4T1 [23] = test: Antiproliferative activity against mouse 4T1 cells incubated for 48 hrs by CCK-8 method; assay type: functional, cell-based; details: 4T1, 48 h
MDA-MB-468 = test: Antiproliferative activity against human MDA-MB-468 cells incubated for 48 hrs by CCK-8 method; assay type: functional, cell-based; details: MDA-MB-468, 48 h
4T1-Luc [24] = test: Anti-metastatic activity in mouse 4T1-Luc cells assessed as reduction in disruption of cell structure at 25 to 50 mg/kg, po measured after 20 days by H and E staining based analysis; assay type: functional, organism-based; details: dose 25-50 mg/kg, time 20.0 day
[25] = Toxicity in female BALB/c mouse assessed as change in body weight at 25 to 50 mg/kg, po qd measured after 18 days; assay type: organism-based; details: in vivo, 432 h, dose 25-50 mg/kg, time 18 day
[26] = target: T1, Mitogen-activated protein kinase 1; test: Inhibition of ERK2 (unknown origin) incubated for 60 mins by luminescence based ADP-Glo kinase assay
[27] = target: Mitogen-activated protein kinase 3 (Homo sapiens, UniProt P27361); test: Inhibition of ERK1 (unknown origin) incubated for 60 mins by luminescence based ADP-Glo kinase assay
[28] = Toxicity in female BALB/c mouse assessed as effect on lung at 50 mg/kg, po qd measured after 18 days in presence of chloroquine by H and E staining based analysis; assay type: organism-based; details: in vivo, 432 h, time 18 day
[29] = target: T1, Mitogen-activated protein kinase 1; test: Induction of thermal stabilization of ERK2 (unknown origin) at 10 uM by differential scanning fluorimetry analysis
[30] = target: Ribosomal protein S6 kinase alpha-1 (Homo sapiens, UniProt Q15418); test: Inhibition of RSK1 (unknown origin) incubated for 60 mins by luminescence based ADP-Glo kinase assay
MCF7 [31] = test: Activation of ERK1/2 pathway in human MCF7 cells assessed as increase in EGF-induced p90RSK phosphorylation at 2 uM incubated for 30 mins by Western blot analysis; assay type: cell-based
MCF7 [32] = test: Induction of apoptosis in human MCF7 cells assessed as late apoptotic cells at 1 uM incubated for 48 hrs by Annexin V/FITC and PI staining based flow cytometry analysis (reference value: 3.65%); assay type: functional
MCF7 [33] = test: Induction of autophagy in human MCF7 cells assessed as increase in MDC positive cells at 0.5 to 2 uM by MDC staining based microscopic analysis; assay type: functional, cell-based; details: dose 0.5-2 µM

T1 sequence (P28482 whole entry): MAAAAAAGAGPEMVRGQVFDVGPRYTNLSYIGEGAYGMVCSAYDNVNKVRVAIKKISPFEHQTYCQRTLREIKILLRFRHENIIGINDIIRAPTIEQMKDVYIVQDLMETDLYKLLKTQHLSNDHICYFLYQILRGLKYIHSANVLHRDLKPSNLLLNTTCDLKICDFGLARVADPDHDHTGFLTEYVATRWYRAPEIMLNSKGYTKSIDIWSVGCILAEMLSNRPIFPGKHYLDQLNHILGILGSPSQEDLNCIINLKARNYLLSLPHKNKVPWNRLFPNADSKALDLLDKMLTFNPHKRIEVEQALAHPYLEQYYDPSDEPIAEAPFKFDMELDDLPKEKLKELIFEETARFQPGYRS
Ribosomal protein S6 kinase alpha-1, sequence (Q15418 whole entry): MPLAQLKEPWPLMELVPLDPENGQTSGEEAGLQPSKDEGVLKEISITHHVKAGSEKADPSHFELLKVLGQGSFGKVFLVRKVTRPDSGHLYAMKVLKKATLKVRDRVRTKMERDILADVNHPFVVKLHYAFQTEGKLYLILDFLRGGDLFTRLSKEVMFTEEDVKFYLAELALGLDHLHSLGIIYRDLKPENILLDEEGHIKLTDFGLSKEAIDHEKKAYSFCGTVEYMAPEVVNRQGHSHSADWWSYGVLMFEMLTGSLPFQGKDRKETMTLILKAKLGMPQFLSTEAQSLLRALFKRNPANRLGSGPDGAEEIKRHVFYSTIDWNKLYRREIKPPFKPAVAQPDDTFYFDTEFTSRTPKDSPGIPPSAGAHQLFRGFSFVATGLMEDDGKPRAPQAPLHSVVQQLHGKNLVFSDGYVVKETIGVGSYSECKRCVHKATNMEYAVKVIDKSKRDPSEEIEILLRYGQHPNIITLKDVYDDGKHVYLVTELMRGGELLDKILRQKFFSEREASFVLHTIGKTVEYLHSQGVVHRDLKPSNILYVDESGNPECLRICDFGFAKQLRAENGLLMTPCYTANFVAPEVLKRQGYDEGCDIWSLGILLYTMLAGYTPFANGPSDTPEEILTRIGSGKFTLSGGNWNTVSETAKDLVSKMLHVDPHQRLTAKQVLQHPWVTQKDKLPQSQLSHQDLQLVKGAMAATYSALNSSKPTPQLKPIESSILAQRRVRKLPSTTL
Mitogen-activated protein kinase 3, sequence (P27361 whole entry): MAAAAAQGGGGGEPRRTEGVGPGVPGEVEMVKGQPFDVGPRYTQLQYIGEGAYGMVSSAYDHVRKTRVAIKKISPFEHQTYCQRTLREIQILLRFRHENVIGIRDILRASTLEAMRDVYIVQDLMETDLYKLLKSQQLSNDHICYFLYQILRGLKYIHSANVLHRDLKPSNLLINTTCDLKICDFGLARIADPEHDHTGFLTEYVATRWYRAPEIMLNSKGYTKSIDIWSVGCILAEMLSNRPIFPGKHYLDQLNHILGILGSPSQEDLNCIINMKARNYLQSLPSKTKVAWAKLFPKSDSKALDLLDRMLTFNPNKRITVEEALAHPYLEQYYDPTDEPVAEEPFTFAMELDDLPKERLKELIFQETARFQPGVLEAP

Activity (Mitochondrial membrane [2]): 52.4%
Activity (Mitochondrial membrane [9]): 46.6%
AUC(0-t) [15]: 1.04 µg·h/mL
Kd [16]: 0.116 µM
Activity (Mitochondrial membrane [20]): 9.86%
IC50 (4T1 [23]): 2.76 µM
IC50 (MDA-MB-468): 2.15 µM
IC50 [26]: 0.0979 µM
IC50 [27]: 0.0917 µM
Activity [29]: Active
IC50 [30]: 0.674 µM
Structure (SMILES): O=C(Nc1cc(C(F)(F)F)cc(C(F)(F)F)c1)N[C@@H](Cc1ccccc1)Cn1c[n+](Cc2ccc3ccccc3c2)c2ccccc21.[Br-]
Activity (MCF7 [1]): Active
Activity (MCF7 [3]): inactive
Activity (MCF7 [4]): Active
Activity (MCF7 [5]): Active
Activity [6]: Non-toxic
Activity (4T1 [7]): Active
inhibition (MCF7 [8]): inactive
Activity (4T1 [10]): Active
Activity (4T1-Luc [11]): Active
Activity (MCF7 [12]): Active
Activity (4T1 [13]): Active
Activity (MCF7 [14]): Active
inhibition in vivo at 25 mg/kg (4T1 [17]): 40.7%
inhibition (MCF7 [18]): Dose-dependent-effect
Activity (MCF7 [19]): inactive
Activity [21]: Non-toxic
Activity [22]: Non-toxic
Activity (4T1-Luc [24]): Active
Activity [25]: Non-toxic
Activity [28]: Non-toxic
Activity (MCF7 [31]): inactive
Activity (MCF7 [32]): 13.7%
Activity (MCF7 [33]): Active
